Like-named read-outs stand apart in the source and are kept apart here.

What is called IC50 is the concentration that inhibits the measured activity by half.

The subject of experiment [1] is MES SA (uterine sarcoma cells). In words: Cytotoxic assay (CellTiter-Glo, 72 h), MES SA. The class given is cell-based. (Cellular ATP, detected with luciferase, serves as a proxy for viable cell number.)
The subject of experiment [2] is HEK 293T (human embryonic kidney cells). In words: Cytotoxic assay (CellTiter-Glo, 72 h), HEK 293T. The class given is cell-based.
[3] abbreviates: Homo sapiens, MES-SA, read-out: MES SA IC50 (nM).
Where [4] appears, read: Homo sapiens, HEK-293T, read-out: HEK 293T IC50 (nM).

As for `COC(=O)C12CC(NC(=O)c3csc([C@@H](C[C@H](C(C)C)N(C)C(=O)[C@@H](NC(=O)[C@H]4CCCCN4C)C(C)C)OC(C)=O)n3)(C1)C2` [Tb-55, Methyl 3-(2-((1R,3R)-1-acetoxy-3-((S)—N,3-dimethyl-2-((R)-1-methylpiperidine-2-carboxamido)butanamido)-4-methylpentyl)thiazole-4-carboxamido)bicyclo[1.1.1]pentane-1-carboxylate], the IC50 is 0.93 nM in experiment [1] (setting [3]) and 0.35 nM in experiment [2] (setting [4]).
`COC(=O)[C@@H](C)C[C@H](Cc1ccc(F)cc1)NC(=O)c1csc([C@@H](C[C@H](C(C)C)N(C)C(=O)[C@@H](NC(=O)[C@H]2CCCCN2C)C2CC2)OC(C)=O)n1` [Tb-57, Methyl (2S,4R)-4-(2-((1R,3R)-1-acetoxy-3-((S)-2-cyclopropyl-N-methyl-2-((R)-1-methylpiperidine-2-carboxamido)acetamido)-4-methylpentyl)thiazole-4-carboxamido)-5-(4-fluorophenyl)-2-methylpentanoate]: the half-maximal inhibitory concentration (IC50) was approximately 89.3 nM in experiment [1] (setting [3]) and approximately 105 nM in experiment [2] (setting [4]).
As to `CCCCN1CCCC[C@@H]1C(=O)N[C@H](C(=O)N(C)[C@H](CCc1nc(C(=O)N[C@@H](Cc2ccccc2)C[C@H](C)C(=O)OC)cs1)C(C)C)[C@@H](C)CC` [PTb-D49, Methyl(2S,4R)-4-(2-((R)-3-((2S,3S)-2-((R)-1-butylpiperidine-2-carboxamido)-N,3-dimethylpentanamido)-4-methylpentyl)thiazole-4-carboxamido)-2-methyl-5-phenylpentanoate], the half-maximal inhibitory concentration (IC50) in experiment [1] (setting [3]) and in experiment [2] (setting [4]) was more than 100 nM throughout.
For the molecule `COC(=O)CC12CC(NC(=O)c3csc([C@@H](C[C@H](C(C)C)N(C)C(=O)[C@@H](NC(=O)[C@H]4CCCCN4C)C(C)C)OC(C)=O)n3)(C1)C2` [Tb-56, Methyl 2-(3-(2-((1R,3R)-1-acetoxy-3-((S)—N,3-dimethyl-2-((R)-1-methylpiperidine-2-carboxamido)butanamido)-4-methylpentyl)thiazole-4-carboxamido)bicyclo[1.1.1]pentan-1-yl)], the IC50 was approximately 2.73 nM in experiment [1] (setting [3]) and 1.79 nM in experiment [2] (setting [4]).
For `CCCCN1CCCC[C@@H]1C(=O)N[C@H](C(=O)N(C)[C@H](CCc1nc(C(=O)N[C@@H](Cc2ccccc2)C[C@H](C)C(=O)OC)cs1)C(C)C)C(C)C` [PTb-D51, Methyl(2S,4R)-4-(2-((R)-3-((S)-2-((R)-1-butylpiperidine-2-carboxamido)-N,3-dimethylbutanamido)-4-methylpentyl)thiazole-4-carboxamido)-2-methyl-5-phenylpentanoate], in that order: more than 100 nM and more than 100 nM.
As to `CC[C@H](C)[C@H](NC(=O)[C@H]1CCCCN1C)C(=O)N[C@H](C[C@@H](OC(C)=O)c1nc(C(=O)N[C@@H](Cc2ccccc2)C[C@H](C)C(=O)O)cs1)C(C)C` [Tb-54, (2S,4R)-4-(2-((1R,3R)-1-Acetoxy-4-methyl-3-((2S,3S)-3-methyl-2-((R)-1-methylpiperidine-2-carboxamido)pentanamido)pentyl)thiazole-4-carboxamido)-2-methyl-5-phenylpentanoic Acid], the IC50 in experiment [1] (Homo sapiens, MES SA, Table 3, read-out: MES SA IC50) stood at 6.21 nM; in experiment [2] (Homo sapiens, HEK 293T, Table 3, read-out: HEK 293T IC50), 0.73 nM.
Consider `CC[C@H](C)[C@H](NC(=O)[C@H]1CCCCN1C)C(=O)N(C)[C@H](C[C@@H](OC(C)=O)c1nc(C(=O)NC23C4C5C2C2C3C4C52C(=O)OC)cs1)C(C)C` (stereo partly shown) [Tb1l], for which the IC50 in experiment [1] (MES SA, read-out: IC50 MES SA) is 0.84 nM; in experiment [2] (HEK 293T, read-out: IC50 HEK 293T), 0.26 nM.
As to `CCCCN1CCCC[C@@H]1C(=O)N[C@H](C(=O)N(C)[C@H](C[C@@H](OC(C)=O)c1nc(C(=O)N[C@H]2CC[C@H](C(=O)O)CC2)cs1)C(C)C)C(C)C` [Tb-61], the IC50 in experiment [1] (setting [3]) and in experiment [2] (setting [4]) was more than 100 nM each time.
As to `COC(=O)[C@@H](C)C[C@H](Cc1ccccc1)NC(=O)c1csc([C@@H](C[C@H](C(C)C)N(C)C(=O)C2(NC(=O)[C@H]3CCCCN3C)CCCC2)OC(C)=O)n1` [Tb-52, Methyl (2S,4R)-4-(2-((1R,3R)-1-acetoxy-4-methyl-3-(N-methyl-1-((R)-1-methylpiperidine-2-carboxa-mido)cyclopentane-1-carboxamido)pentyl)thiazole-4-carboxamido)-2-methyl-5-phenylpentanoate], the 50% inhibitory concentration (IC50) in experiment [1] (setting [3]) came out at 7.18 nM; in experiment [2] (setting [4]) it was 5.78 nM.
Take `COC(=O)[C@H]1CC[C@H](NC(=O)c2csc([C@@H](C[C@H](C(C)C)N(C)C(=O)[C@@H](NC(=O)[C@H]3CCCCN3C)C(C)C)OC(C)=O)n2)CC1` [Tb-58, Methyl (1R,4r)-4-(2-((1R,3R)-1-acetoxy-3-((S)—N,3-dimethyl-2-((R)-1-methylpiperidine-2-carboxamido)butanamido)-4-methylpentyl)thiazole-4-carboxamido)cyclohexane-1-carboxylate]: the IC50 in experiment [1] (setting [3]) was 6.16 nM; in experiment [2] (setting [4]), 3.83 nM.
In the case of `CC[C@H](C)[C@H](NC(=O)[C@H]1CCCCN1C)C(=O)N[C@H](C[C@@H](OC(C)=O)c1nc(C(=O)N[C@@H](Cc2ccccc2)C[C@H](C)C(=O)OC)cs1)C(C)C` [Tb-53, (2S,4R)-Methyl 4-(2-((1R,3R)-1-acetoxy-4-methyl-3-((2S,3S)-3-methyl-2-((R)-1-methylpiperidine-2-carboxamido)pentanamido)pentyl)thiazole-4-carboxamido)-2-methyl-5-phenyl pentanoate], the IC50 in experiment [1] (setting [3]) came to 0.92 nM; in experiment [2] (setting [4]), 0.56 nM.
As to `CC(=O)O[C@H](C[C@H](C(C)C)N(C)C(=O)[C@@H](NC(=O)[C@H]1CCCCN1C)C(C)C)c1nc(C(=O)N[C@H]2CC[C@H](C(=O)O)CC2)cs1` [Tb-59, (1R,4r)-4-(2-((1R,3R)-1-Acetoxy-3-((S)—N,3-dimethyl-2-((R)-1-methylpiperidine-2-carboxamido)butanamido)-4-methylpentyl)thiazole-4-carboxamido)cyclohexane-1-carboxylic Acid], the 50% inhibitory concentration (IC50) in experiment [1] (setting [3]) and in experiment [2] (setting [4]) was more than 100 nM throughout.
As to `COC(=O)[C@@H](C)C[C@H](Cc1ccccc1)NC(=O)c1csc(CC[C@H](C(C)C)N(C)C(=O)[C@@H](NC(=O)[C@H]2CCCCN2C)C(C)C)n1` [PTb-D50, Methyl(2S,4R)-4-(2-((R)-3-((S)—N,3-dimethyl-2-((R)-1-methylpiperidine-2-carboxamido)butanamido)-4-methylpentyl)thiazole-4-carboxamido)-2-methyl-5-phenylpentanoate], the IC50 in experiment [1] (setting [3]) and in experiment [2] (setting [4]) was more than 100 nM in each case.
On to `CCCCN1CCCC[C@@H]1C(=O)N[C@H](C(=O)N(C)[C@H](C[C@@H](OC(C)=O)c1nc(C(=O)N[C@H]2CC[C@H](C(=O)OC)CC2)cs1)C(C)C)C(C)C` [Tb-60, Methyl (1R,4r)-4-(2-((1R,3R)-1-acetoxy-3-((S)-2-((R)-1-butylpiperidine-2-carboxamido)-N,3-dimethylbutanamido)-4-methylpentyl)thiazole-4-carboxamido)cyclohexane-1-carboxylate], for which the IC50 in experiment [1] (setting [3]) and in experiment [2] (setting [4]) was more than 100 nM each time.
